For the assay, the target named is Recombinant MAPKAPK2 (Homo sapiens, UniProt P49137). As to the kind of experiment: Determination of MK-2 IC50 (HSP-peptide phosphorylation, anion exchange resin capture assay). The class given is biochemical. The method, then:
The phosphorylation of HSP-peptide ([…]) by MAPKAPK2 was measured using an anion exchange resin capture assay method. […] The reaction was terminated and [γ^33P]ATP was removed from solution by the addition of 150 μl of AG 1×8 ion exchange resin in 900 mM sodium formate pH 3.0. A 50 μl aliquot of head volume was removed from the quenched reaction mixture and added to a 96-well plate, 150 μl of Microscint-40 (Packard) was added and the amount of phosphorylated-peptide was determined. Allow the Microscint to sit in the plates for 60 minutes prior to counting.
Compounds are evaluated as potential inhibitors of the MK2 kinase by measuring their effects on MK2 phosphorylation of the peptide substrate. Compounds may be screened initially at two concentrations prior to determination of IC50 values. Screening results are expressed as percent inhibition at the concentrations of compound tested. For IC50 value determinations, compounds are tested at six concentrations in ten-fold serial dilutions with each concentration tested in triplicate. Results are expressed as IC50 values in micromolar. The assay is performed at a final concentration of 2% DMSO.

[1] abbreviates: MK-2 Avg. IC50, Table I, aminocyanopyridine MK-2 inhibitors.
[2] abbreviates: MK-2 Avg. IC50, Table 2, tricyclic aminocyanopyridine MK-2 inhibitors.

Chain of Recombinant MAPKAPK2 (P49137 whole entry, species assumed): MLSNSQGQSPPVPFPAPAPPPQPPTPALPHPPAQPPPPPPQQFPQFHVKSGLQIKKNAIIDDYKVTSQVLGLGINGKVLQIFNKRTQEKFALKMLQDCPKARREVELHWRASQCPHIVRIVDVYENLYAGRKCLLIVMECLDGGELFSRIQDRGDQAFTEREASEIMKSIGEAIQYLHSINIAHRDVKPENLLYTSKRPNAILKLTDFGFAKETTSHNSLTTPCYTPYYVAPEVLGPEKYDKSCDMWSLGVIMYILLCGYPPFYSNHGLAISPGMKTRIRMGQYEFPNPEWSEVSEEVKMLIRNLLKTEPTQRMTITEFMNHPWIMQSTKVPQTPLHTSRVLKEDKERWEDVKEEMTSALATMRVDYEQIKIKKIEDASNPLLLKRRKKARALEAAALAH

In the case of `Cn1cnc(-c2cc(-c3ccccc3)nc(N)c2C#N)c1` [Example 28], the concentration for half-maximal inhibition (IC50) (in general, the concentration needed to halve the response being measured) under setting [1] was 7.63 µM.
`N#Cc1c(-c2ccco2)cc(-c2cccc(B(O)O)c2)nc1N` [Example 124]: the half-maximal inhibitory concentration (IC50) under setting [1] worked out at 126 µM.
`N#Cc1c(N)nc2c(c1N)Cc1ccc(CN3CCCCC3)c(O)c1O2` [Example 42]: the IC50 under setting [2] was found to be 8.28 µM.
Regarding `CC1(C)Cc2n[nH]cc2-c2nc(N)c(C#N)c(-c3ccco3)c21` [Example 114], under setting [1], the IC50 was 109 µM.
For the molecule `N#Cc1c(N)nc2c(c1N)Cc1cccc(OCCN)c1O2` [Example 71], the IC50 under setting [2] is 161 µM.
Regarding `Cn1ncc2c1CCc1c-2nc(N)c(C#N)c1-c1ccco1` [Example 57], the IC50 under setting [1] is 28.3 µM.
`CSc1cc(-c2ccco2)nc(N)c1C#N` [Example 50]: under setting [1], the IC50 was determined as 22.5 µM.
Same read-out and setting: next, `N#Cc1c(-c2ccco2)cc(-c2ccsc2)nc1N` [Example 106]: 97.3 µM; `COC(=O)c1cccc(-c2c(C#N)c(N)nc3c2CCc2[nH]ncc2-3)c1` [Example 147]: 191 µM.
For the molecule `CCCNc1c(C#N)c(N)nc2c1Cc1cc(OC)c(OC)cc1O2` [Example 50], under setting [2], the IC50 came to 15.6 µM.
In the case of `COc1cccc2c1Oc1nc(N)c(C#N)c(N)c1C2C(C#N)C#N` (stereo not drawn) [Example 54], the IC50 under setting [2] stood at 21.2 µM.
Consider `N#Cc1c(N)nc2c(c1N)Cc1cc(N)ccc1S2(=O)=O` [Example 48], for which the half-inhibitory concentration (IC50) under setting [2] amounted to 14.4 µM.
Consider `N#Cc1c(-c2ccco2)cc(-c2ccco2)nc1N` [Example 75], for which, under setting [1], the IC50 came out at 47.6 µM.
For `N#Cc1c(-c2ccc(F)cc2)cc(-c2ccco2)nc1N` [Example 140], under setting [1], the IC50 is 165 µM.
As to `CCc1c(C#N)c(N)nc2[nH]nc(N)c12` [Example 131], the IC50 under setting [1] was determined as 146 µM.
With `N#Cc1ccc(-c2c(C#N)c(N)nc3c2CCc2[nH]ncc2-3)cc1` [Example 81], the IC50 under setting [1] worked out at 52.1 µM.
For the molecule `COc1ccc(-c2cc(-c3nnc[nH]3)c(C#N)c(N)n2)cc1` [Example 48], the IC50 under setting [1] was 17.3 µM.
In the case of `N#Cc1c(N)nc2c(c1N)Cc1cc(O)ccc1S2` [Example 51], under setting [2], the IC50 turned out to be 17.4 µM.
With `COc1ccc(Nc2c(C#N)c(N)nc3c2Cc2cc(OC)c(OC)cc2O3)cc1` [Example 33], under setting [2], the IC50 was found to be 2.98 µM.
As for `COc1ccnc(N)c1C#N` [Example 91], the IC50 under setting [1] was 69.6 µM.
In the case of `COc1cccc(-c2c(C#N)c(N)nc3c2CCc2[nH]ncc2-3)c1` [Example 56], the IC50 under setting [1] amounted to 27.8 µM.
Take `COc1ccc(-c2c(C#N)c(N)nc3c2CCc2[nH]ncc2-3)cc1` [Example 40]: under setting [1], the IC50 is 12 µM.
In the case of `N#Cc1c(-c2c[nH]c(C(=O)O)c2)cc(-c2ccco2)nc1N` [Example 76], the IC50 under setting [1] is 48.7 µM.
With `N#Cc1c(-c2ccco2)cc(-c2cccc3cccc(O)c23)nc1N` [Example 133], the IC50 under setting [1] was found to be 153 µM.
Regarding `N#Cc1c(N)nc(SCC(=O)c2ccc(Cl)cc2)c(C#N)c1-c1ccco1` [Example 87], the 50% inhibitory concentration (IC50) under setting [1] came to 63.3 µM.
Turning to `N#Cc1c(-c2ccco2)cc(-c2cc[nH]n2)nc1N` [Example 29], the IC50 under setting [1] turned out to be 7.72 µM.
Consider `N#Cc1c(N)nc2c(c1-c1cccc(F)c1F)CCc1[nH]ncc1-2` [Example 3], for which the IC50 under setting [1] stood at 1.95 µM.
Consider `CC(C)(C)NS(=O)(=O)c1ccc(-c2cc(-c3ccccc3F)c(C#N)c(N)n2)cc1` [Example 95], for which the IC50 under setting [1] amounted to 71.5 µM.
Take `CCCc1nc(N)c(C#N)c(N)c1C#N` [Example 109]: the concentration for half-maximal inhibition (IC50) under setting [1] worked out at 99.8 µM.
Take `C=CCOc1cc2c(cc1OCC=C)Oc1nc(N)c(C#N)c(N)c1C2` [Example 43]: the IC50 under setting [2] is 9.6 µM.
As to `CCOCCOc1cc2c(cc1O)Cc1c(nc(N)c(C#N)c1N)O2` [Example 14], under setting [2], the IC50 was found to be 0.62 µM.
With `N#Cc1c(N)nc2c(c1-c1ccco1)CCc1cnccc1-2` [Example 26], the IC50 under setting [1] was 6.48 µM.
In the case of `Cn1cccc1-c1cc(-c2ccco2)c(C#N)c(N)n1` [Example 83], under setting [1], the half-inhibitory concentration (IC50) is 54.4 µM.
In the case of `N#Cc1c(N)nc2c(c1N)CC(CCl)O2` (stereo not drawn) [Example 44], the IC50 under setting [1] came to 13.4 µM.
Take `N#Cc1c(-c2ccco2)cc(-c2c[nH]c3ccccc23)nc1N` [Example 102]: the IC50 under setting [1] stood at 87.1 µM.
As to `CC(C)(C)NS(=O)(=O)c1ccc(-c2cc(-c3ccco3)c(C#N)c(N)n2)cc1` [Example 64], the IC50 under setting [1] amounted to 36.4 µM.
On to `N#Cc1c(N)nc2c(c1N)Cc1cccc(OCC(=O)O)c1O2` [Example 96], for which the half-inhibitory concentration (IC50) under setting [1] amounted to 72.2 µM.
The same measure, in the same setting: under `N#Cc1c(-c2cnc[nH]2)cc(-c2ccco2)nc1N` [Example 17] stands 4.94 µM; under `N#Cc1c(-c2cnc[nH]2)cc(-c2ccc(C(=O)O)cc2)nc1N` [Example 30], 8.37 µM.
Regarding `CC(C)(C)OC(=O)COc1cc2c(cc1OCC(=O)OC(C)(C)C)Oc1nc(N)c(C#N)c(N)c1C2` [Example 45], the IC50 under setting [2] stood at 10.3 µM.
Take `N#Cc1c(N)nc2c(c1-c1ccncc1)CCc1n[nH]cc1-2` [Example 103]: under setting [1], the IC50 was found to be 94.3 µM.
Turning to `N#Cc1c(-c2ccc(C(=O)O)cc2)cc(-c2ccco2)nc1N` [Example 92], the IC50 under setting [1] was 59.8 µM.
Take `N#Cc1c(N)nc2c(c1N)CC(COC(F)(F)C(F)F)O2` (stereo not drawn) [Example 127]: under setting [1], the IC50 came to 131 µM.
Take `N#Cc1c(-c2cccc(F)c2)cc(-c2ccco2)nc1N` [Example 139]: the IC50 under setting [1] was 164 µM.
On to `N#Cc1c(N)nc2c(c1N)Cc1cc(N)ccc1O2` [Example 12], for which the IC50 under setting [2] stood at 0.514 µM.
For the molecule `COc1ccc2c(c1)Oc1nc(N)c(C#N)c(N)c1C2c1ccccc1F` (stereo not drawn) [Example 69], under setting [2], the IC50 turned out to be 151 µM.
For `N#Cc1c(-c2ccc(C(F)(F)F)cc2)cc(-c2ccco2)nc1N` [Example 112], under setting [1], the IC50 amounted to 107 µM.
With `COc1ccc2c(c1O)Oc1nc(N)c(C#N)c(N)c1C2` [Example 15], under setting [2], the IC50 was found to be 0.682 µM.
With `COc1ccc2c(c1)Cc1c(nc(N)c(C#N)c1N)O2` [Example 58], the IC50 under setting [2] amounted to 43 µM.
Still for that read-out and setting: under `N#Cc1c(N)nc2c(c1N)Cc1cccc(OCCO)c1O2` [Example 70] stands 154 µM.
Consider `CCOC(=O)c1ccc(-c2cc(-c3cnc[nH]3)c(C#N)c(N)n2)cc1` [Example 78], for which the 50% inhibitory concentration (IC50) under setting [1] worked out at 49.1 µM.
Consider `N#Cc1c(-c2ccco2)cc(-c2ccc3c(c2)Nc2ccccc2S3)nc1N` [Example 136], for which the IC50 under setting [1] is 158 µM.
Still for that read-out and setting: under `N#Cc1c(-c2ccccc2F)cc(-c2ccco2)nc1N` [Example 14] stands 4.41 µM; under `N#Cc1c(-c2ccccc2Br)cc(-c2ccco2)nc1N` [Example 53], 26.1 µM.
For `N#Cc1c(N)nc2ccccc2c1N` [Example 73], under setting [1], the IC50 was 45.5 µM.
As for `N#Cc1c(-c2cnc[nH]2)cc(-c2ccccc2)nc1N` [Example 35], the IC50 under setting [1] turned out to be 9.4 µM.
Still for that read-out and setting: next, `N#Cc1c(-c2cnc[nH]2)cc(-c2ccc(O)cc2)nc1N` [Example 12]: 3.62 µM; `N#Cc1c(N)nc2c(c1-c1ccccc1)CCc1n[nH]cc1-2` [Example 7]: 2.73 µM.
Turning to `N#Cc1c(-c2ccccc2F)cc(-c2ccco2)nc1Nc1ccccc1` [Example 138], the 50% inhibitory concentration (IC50) under setting [1] came to 162 µM.
With `N#Cc1c(N)nc2c(c1-c1cccc(C(=O)O)c1)CCc1[nH]ncc1-2` [Example 68], the IC50 under setting [1] was 41.7 µM.
As for `N#Cc1c(-c2cnc[nH]2)cc(-c2cccc(O)c2)nc1N` [Example 20], the IC50 under setting [1] stood at 5.81 µM.
As to `CCC1Cc2c(nc(N)c(C#N)c2N)O1` (stereo not drawn) [Example 65], the IC50 under setting [1] is 37.9 µM.
For the molecule `CS(=O)(=O)Nc1ccc(-c2cc(-c3ccco3)c(C#N)c(N)n2)cc1` [Example 33], the IC50 under setting [1] was 9.27 µM.

Values taken from patent publication US20040127519A1 (Pharmacia Corporation, priority 2002, published 2004).
